Molecular target: CYP2C19 (Homo sapiens, UniProt P33261)
Assay: In vitro CYP inhibition
Assay type: in vitro ADME

Chain of CYP2C19 (P33261 whole entry): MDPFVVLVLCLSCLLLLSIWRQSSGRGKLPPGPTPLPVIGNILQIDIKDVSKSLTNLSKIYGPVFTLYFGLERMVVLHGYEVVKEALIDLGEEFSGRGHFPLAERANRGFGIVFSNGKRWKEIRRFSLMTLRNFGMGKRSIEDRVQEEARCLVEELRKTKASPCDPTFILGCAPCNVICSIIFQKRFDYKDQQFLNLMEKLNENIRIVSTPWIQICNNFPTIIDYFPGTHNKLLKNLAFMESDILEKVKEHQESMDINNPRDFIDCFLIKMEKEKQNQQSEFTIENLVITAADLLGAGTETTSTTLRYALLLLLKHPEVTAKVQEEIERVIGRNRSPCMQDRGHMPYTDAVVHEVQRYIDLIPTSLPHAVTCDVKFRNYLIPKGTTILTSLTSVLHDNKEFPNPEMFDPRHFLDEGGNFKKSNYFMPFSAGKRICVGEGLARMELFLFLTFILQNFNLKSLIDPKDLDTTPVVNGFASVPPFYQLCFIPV

COc1cc2nccc(Oc3ccc(NC(=O)NC4CC4)c(Cl)c3)c2cc1C(N)=O [Lenvatinib, 4-(3-chloro-4(cyclopropylaminocarbonyl)aminophenoxy)-7-methoxy-6-quinolinecarboxamide]
inhibition of CYP2C19: inhibits
